In article PMC9389804 (Journal of Hematology & Oncology, 2022):
Where “and” joins values, the source holds several entries; their conditions need not be identical. Equal entries are not always repeated.

Test: safety assessments (adverse events, NCI CTCAE)
Conditions: for Treatment-related cardiovascular events: G 3/4
[1] = AE resulting in dose interruption, Accelerated phase n=38
[2] = AE resulting in dose interruption, Chronic phase n=127
[3] = AE resulting in dose interruption, Total n=165
[4] = AE resulting in dose reduction, Accelerated phase n=38
[5] = AE resulting in dose reduction, Chronic phase n=127
[6] = AE resulting in dose reduction, Total n=165
[7] = AE resulting in treatment discontinuation, Accelerated phase n=38
[8] = AE resulting in treatment discontinuation, Chronic phase n=127
[9] = AE resulting in treatment discontinuation, Total n=165
[10] = CVE possibly related to olverembatinib, all 165 patients
[11] = CVEs possibly related to olverembatinib

Description: Adverse events were assessed continuously and graded according to NCI CTCAE v5.0.18. Complete blood count with differential, serum chemistries, and physical examinations were performed before the study; weekly during Cycles 1 and 2; on alternate weeks in Cycles 3 and 4; and monthly thereafter.

Cc1ccc(C(=O)Nc2ccc(CN3CCN(C)CC3)c(C(F)(F)F)c2)cc1C#Cc1cnc2[nH]ncc2c1 [olverembatinib]
44 (34.6) n (%): Hematologic [2]
26 (15.8) n (%): Thrombocytopenia [6]
1.2%: Palpitations [10]
21 (12.7) n (%): Nonhaematologic [6]
1 (2.6) n (%): Anal abscess [1] | Atrial fibrillation [1] | Hepatocellular injury [1] | Hyperkalemia [1] | Hypertriglyceridaemia [1] | Increased alanine aminotransferase [1] | Increased aspartate aminotransferase [1] | Increased creatine phosphokinase [1] | Iridocyclitis [1] | Musculoskeletal pain [1] | Pulmonary tuberculosis [1] | Rash [1] | Sinus tachycardia [1] | Supraventricular extrasystoles [1] | Upper-respiratory-tract infection [1] | Anemia [4] | Arthralgia [4] | Atrial fibrillation [4] | Hyperbilirubinaemia [4] | Hyperglycaemia [4] | Hypokalemia [4] | Neutropenia [4] | Seronegative arthritis [4] | Nonhaematologic [7] | Pericardial effusion [7]
28 (73.7%) n (%) and 28 (73.7) n (%): Adverse events resulting in dose interruption (Accelerated phase n=38)
7 (18.4) n (%): Thrombocytopenia [4]
22 (57.9) n (%): Hematologic [1]
10 (26.3) n (%): Hematologic adverse events [4]
30 (18.2) n (%): Hematologic adverse events [6]
59 (35.8) n (%): Thrombocytopenia [3]
19 (15) n (%): Thrombocytopenia [5]
11.5%: G3/4 cardiovascular events [11]
11 months: median time on treatment to cardiovascular events (CVEs) [11]
66 (40.0) n (%): Hematologic [3]
1 (0.6) n (%): Acute myocardial infarction [3] | Anal abscess [3] | Atrial septal defect [3] | Chest pain [3] | Cholecystitis acute [3] | Cholelithiasis [3] | Febrile neutropenia [3] | Glaucoma [3] | Hemorrhoids [3] | Hepatocellular injury [3] | Hyperglycaemia [3] | Hyperkalemia [3] | Hyperuricaemia [3] | Hypoesthesia [3] | Hyponatremia [3] | Increased amylase [3] | Increased pulmonary arterial pressure [3] | Increased γ-glutamyl transferase [3] | Influenza like illness [3] | Iridocyclitis [3] | Lacunar infarction [3] | Liver disorder [3] | Musculoskeletal pain [3] | Myocardial strain [3] | Pain [3] | Pain in extremity [3] | Pericardial effusion [3] | Peripheral swelling [3] | Proteinuria [3] | Pulmonary arterial hypertension [3] | Pulmonary tuberculosis [3] | Rash [3] | Refraction disorder [3] | Sinus bradycardia [3] | Skin mass [3] | Superior mesenteric artery syndrome [3] | Supraventricular extrasystoles [3] | Swelling [3] | Urinary sediment present [3] | Acute coronary syndrome [6] | Arteriosclerosis coronary artery [6] | Arthralgia [6] | Asthenia [6] | Atrial fibrillation [6] | Cerebral infarction [6] | Chest discomfort [6] | Dyspnea [6] | Electrocardiogram QT prolonged [6] | Glaucoma [6] | Hypertriglyceridaemia [6] | Hypokalemia [6] | Proteinuria [6] | Seronegative arthritis [6] | Subileus [6] | Acute myocardial infarction [9] | Breast cancer [9] | Febrile neutropenia [9] | Lacunar infarction [9] | Pericardial effusion [9] | Proteinuria [9] | Retinal-vein occlusion [9]
6 (3.6) n (%): Nonhaematologic [9] | Thrombocytopenia [9]
0 n (%): Acute myocardial infarction [1] | Atrial septal defect [1] | Chest pain [1] | Cholecystitis acute [1] | Cholelithiasis [1] | Febrile neutropenia [1] | Glaucoma [1] | Hemorrhoids [1] | Hyperbilirubinaemia [1] | Hyperglycaemia [1] | Hyperuricaemia [1] | Hypocalcemia [1] | Hypoesthesia [1] | Hyponatremia [1] | Increased amylase [1] | Increased pulmonary arterial pressure [1] | Increased γ-glutamyl transferase [1] | Influenza like illness [1] | Lacunar infarction [1] | Liver disorder [1] | Myocardial strain [1] | Pain [1] | Pain in extremity [1] | Peripheral swelling [1] | Pneumonia [1] | Proteinuria [1] | Pulmonary arterial hypertension [1] | Refraction disorder [1] | Sinus bradycardia [1] | Skin mass [1] | Superior mesenteric artery syndrome [1] | Swelling [1] | Urinary sediment present [1] | Anal abscess [2] | Hepatocellular injury [2] | Hyperkalemia [2] | Hypokalemia [2] | Iridocyclitis [2] | Musculoskeletal pain [2] | Pericardial effusion [2] | Pulmonary tuberculosis [2] | Rash [2] | Supraventricular extrasystoles [2] | Acute coronary syndrome [4] | Arteriosclerosis coronary artery [4] | Asthenia [4] | Cerebral infarction [4] | Chest discomfort [4] | Dyspnea [4] | Electrocardiogram QT prolonged [4] | Glaucoma [4] | Hypertriglyceridaemia [4] | Increased creatine phosphokinase [4] | Proteinuria [4] | Retinal-vein occlusion [4] | Subileus [4] | Arthralgia [5] | Atrial fibrillation [5] | Hypokalemia [5] | Leukopenia [5] | Seronegative arthritis [5] | Acute myocardial infarction [7] | Breast cancer [7] | Febrile neutropenia [7] | Lacunar infarction [7] | Proteinuria [7] | Retinal-vein occlusion [7] | Pericardial effusion [8]
5 (3.9) n (%): Nonhaematologic [8]
4 (2.4) n (%): Hypertriglyceridaemia [3] | Increased alanine aminotransferase [3] | Increased creatine phosphokinase [3]
58 (45.7%) n (%) and 58 (45.7) n (%): Adverse events resulting in dose interruption (Chronic phase n=127)
19 (11.5) n (%): Treatment-related cardiovascular events (Total n=165)
9 (7.1) n (%): Adverse events resulting in treatment discontinuation (Chronic phase n=127)
5 (3.0) n (%): Neutropenia [3]
3 (1.8) n (%): Hypocalcemia [3] | Increased aspartate aminotransferase [3] | Pyrexia [3] | Anemia [6] | Neutropenia [6]
5 (13.2) n (%): Anemia [1] | Leukopenia [1] | Nonhaematologic [4]
7 (4.2) n (%): Hematologic [9]
2 (1.6) n (%): Hyperbilirubinaemia [2] | Increased aspartate aminotransferase [2] | Pneumonia [2] | Anemia [5] | Increased creatine phosphokinase [5] | Neutropenia [5] | Retinal-vein occlusion [5]
9 (5.5) n (%): Leukopenia [3]
14 (36.8) n (%): Nonhematologic [1]
3 (2.4) n (%): Anemia [2] | Hypertriglyceridaemia [2] | Hypocalcemia [2] | Increased alanine aminotransferase [2] | Increased creatine phosphokinase [2] | Thrombocytopenia [8]
4.2%: Ventricular extrasystoles [10]
4 (3.1) n (%): Leukopenia [2] | Hematologic [8]
2 (5.3) n (%): Hypokalemia [1] | Pyrexia [1] | Leukopenia [4]
2 (1.2) n (%): Atrial fibrillation [3] | Hyperbilirubinaemia [3] | Hypokalemia [3] | Pneumonia [3] | Sinus tachycardia [3] | Upper-respiratory-tract infection [3] | Hyperbilirubinaemia [6] | Hyperglycaemia [6] | Increased creatine phosphokinase [6] | Leukopenia [6] | Retinal-vein occlusion [6]
1 (0.8) n (%): Acute myocardial infarction [2] | Atrial fibrillation [2] | Atrial septal defect [2] | Chest pain [2] | Cholecystitis acute [2] | Cholelithiasis [2] | Febrile neutropenia [2] | Glaucoma [2] | Hemorrhoids [2] | Hyperglycaemia [2] | Hyperuricaemia [2] | Hypoesthesia [2] | Hyponatremia [2] | Increased amylase [2] | Increased pulmonary arterial pressure [2] | Increased γ-glutamyl transferase [2] | Influenza like illness [2] | Lacunar infarction [2] | Liver disorder [2] | Myocardial strain [2] | Neutropenia [2] | Pain [2] | Pain in extremity [2] | Peripheral swelling [2] | Proteinuria [2] | Pulmonary arterial hypertension [2] | Pyrexia [2] | Refraction disorder [2] | Sinus bradycardia [2] | Sinus tachycardia [2] | Skin mass [2] | Superior mesenteric artery syndrome [2] | Swelling [2] | Upper-respiratory-tract infection [2] | Urinary sediment present [2] | Acute coronary syndrome [5] | Arteriosclerosis coronary artery [5] | Asthenia [5] | Cerebral infarction [5] | Chest discomfort [5] | Dyspnea [5] | Electrocardiogram QT prolonged [5] | Glaucoma [5] | Hyperbilirubinaemia [5] | Hyperglycaemia [5] | Hypertriglyceridaemia [5] | Proteinuria [5] | Subileus [5] | Acute myocardial infarction [8] | Breast cancer [8] | Febrile neutropenia [8] | Lacunar infarction [8] | Proteinuria [8] | Retinal-vein occlusion [8]
4 (10.5) n (%): Neutropenia [1] | Adverse events resulting in treatment discontinuation (Accelerated phase n=38) | Treatment-related cardiovascular events (Accelerated phase n=38)
48 (29.1) n (%): Nonhematologic [3]
17 (44.7) n (%): Thrombocytopenia [1]
15 (11.8) n (%): Treatment-related cardiovascular events (Chronic phase n=127)
16 (12.6) n (%): Nonhaematologic [5]
14 (36.8%) n (%) and 14 (36.8) n (%): Adverse events resulting in dose reduction (Accelerated phase n=38)
36 (28.3%) n (%) and 36 (28.3) n (%): Adverse events resulting in dose reduction (Chronic phase n=127)
3.0%: Atrial fibrillation [10] | Supraventricular extrasystoles [10]
8.5%: Pericardial effusion [10]
8 (4.8) n (%): Anemia [3]
3 (7.9) n (%): Hematologic [7] | Thrombocytopenia [7]
1.8%: Retinal-vein occlusion [10]
34 (26.8) n (%): Nonhematologic [2]
20 (15.7) n (%): Hematologic adverse events [5]
< 1%: angina pectoris, arrhythmia, atrial tachycardia, cardiomegaly, cerebral ischemia, and/or cerebral infarction [10]
42 (33.1) n (%): Thrombocytopenia [2]
